Active and inactive are the calls of the source. The calls are words filed in the database; no cut-off is given here.

Assay [1] concerns the target Receptor tyrosine-protein kinase erbB-2 (Homo sapiens, UniProt P04626). Nature of the assay: Inhibition of human recombinant GST-fused HER2 expressed in baculovirus Sf9 insect cells using poly(Glu,Tyr) as substrate after 60 mins by scintillation counting.
In assay [2] the target is T1, Protein-tyrosine kinase 6 (Homo sapiens, UniProt Q13882). Nature of the assay: Inhibition of human recombinant GST-fused Brk expressed in baculovirus Sf9 insect cells using poly(Glu,Tyr) as substrate after 60 mins by scintillation counting.
Target sequence in this assay (Q13882 whole entry, the tested form may be a part): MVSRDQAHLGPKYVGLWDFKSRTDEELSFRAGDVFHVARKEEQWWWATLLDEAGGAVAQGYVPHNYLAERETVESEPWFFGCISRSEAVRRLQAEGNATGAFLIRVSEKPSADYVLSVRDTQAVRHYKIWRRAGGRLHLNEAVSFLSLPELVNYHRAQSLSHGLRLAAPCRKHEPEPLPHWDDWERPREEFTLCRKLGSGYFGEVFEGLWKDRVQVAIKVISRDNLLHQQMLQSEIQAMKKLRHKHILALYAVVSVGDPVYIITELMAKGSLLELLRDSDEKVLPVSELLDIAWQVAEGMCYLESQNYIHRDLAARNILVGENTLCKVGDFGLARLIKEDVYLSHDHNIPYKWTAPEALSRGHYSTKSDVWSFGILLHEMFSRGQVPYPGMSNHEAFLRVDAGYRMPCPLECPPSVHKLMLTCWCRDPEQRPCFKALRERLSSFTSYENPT
The test system of assay [3] is MDA-MB-468. The experiment in a line: Antiproliferative activity against human MDA-MB-468 cells by SRB assay. Type of assay: functional.
Assay [4] deals with MCF7. The experiment in a line: Antiproliferative activity against human MCF7 cells by SRB assay. Format: functional.
The target in assay [5] is T1, Protein-tyrosine kinase 6. Nature of the assay: Inhibition of BRK in human T47D cells assessed as phosphorylation of STAT3 at >100 nM by Western blot analysis. Format: cell-based.
Target sequence in this assay (Q13882 whole entry, looked up, the tested form may be a part): as the sequence (Q13882 whole entry, the tested form may be a part) above
The target of assay [6] is T2, Aurora kinase C (Homo sapiens, UniProt Q9UQB9).
T2 sequence (Q9UQB9 whole entry): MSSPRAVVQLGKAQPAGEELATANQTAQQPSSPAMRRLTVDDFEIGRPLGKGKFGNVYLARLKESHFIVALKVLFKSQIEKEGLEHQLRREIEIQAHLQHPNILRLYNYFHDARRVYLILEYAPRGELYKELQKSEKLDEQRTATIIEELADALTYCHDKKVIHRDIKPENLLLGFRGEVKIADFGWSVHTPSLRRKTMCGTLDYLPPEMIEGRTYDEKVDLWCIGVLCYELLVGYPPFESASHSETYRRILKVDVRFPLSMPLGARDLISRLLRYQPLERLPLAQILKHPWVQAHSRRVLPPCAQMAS
Nature of the assay: Inhibition of aurora-C (unknown origin) using tetra(LRRWSLG) as substrate after 60 mins by scintillation counting.

Assay [7] deals with T3, Aurora kinase A (Homo sapiens, UniProt O14965).
T3 sequence (O14965 whole entry): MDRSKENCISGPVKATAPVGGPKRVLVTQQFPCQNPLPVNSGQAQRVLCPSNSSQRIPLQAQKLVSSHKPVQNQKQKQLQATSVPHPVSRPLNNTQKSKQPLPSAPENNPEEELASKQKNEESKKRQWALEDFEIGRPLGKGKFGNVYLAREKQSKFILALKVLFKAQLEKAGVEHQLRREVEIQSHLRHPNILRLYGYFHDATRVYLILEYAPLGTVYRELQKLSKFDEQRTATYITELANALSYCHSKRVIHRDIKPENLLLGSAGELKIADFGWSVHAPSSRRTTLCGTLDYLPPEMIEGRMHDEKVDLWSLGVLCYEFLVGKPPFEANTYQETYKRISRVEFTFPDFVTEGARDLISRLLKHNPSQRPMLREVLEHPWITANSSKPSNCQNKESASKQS
The experiment in a line: Inhibition of aurora-A (unknown origin) using tetra(LRRWSLG) as substrate after 60 mins by scintillation counting.

The target in assay [8] is Epidermal growth factor receptor (Homo sapiens, UniProt P00533). Nature of the assay: Inhibition of EGFR (unknown origin) using poly(Glu,Tyr) as substrate after 60 mins by scintillation counting.
For assay [9], the target named is RAC-beta serine/threonine-protein kinase (Homo sapiens) (UniProt P31751). Nature of the assay: Inhibition of AKT2 (unknown origin)using GSK3 (14 to 27) as substrate after 60 mins by scintillation counting.
Assay [10] addresses RAC-alpha serine/threonine-protein kinase (Homo sapiens) (UniProt P31749). The experiment in a line: Inhibition of AKT1 (unknown origin) using GSK3 (14 to 27) as substrate after 60 mins by scintillation counting.
Assay [11] addresses T4, Serine/threonine-protein kinase VRK1 (Homo sapiens) (UniProt Q99986).
T4 sequence (whole entry): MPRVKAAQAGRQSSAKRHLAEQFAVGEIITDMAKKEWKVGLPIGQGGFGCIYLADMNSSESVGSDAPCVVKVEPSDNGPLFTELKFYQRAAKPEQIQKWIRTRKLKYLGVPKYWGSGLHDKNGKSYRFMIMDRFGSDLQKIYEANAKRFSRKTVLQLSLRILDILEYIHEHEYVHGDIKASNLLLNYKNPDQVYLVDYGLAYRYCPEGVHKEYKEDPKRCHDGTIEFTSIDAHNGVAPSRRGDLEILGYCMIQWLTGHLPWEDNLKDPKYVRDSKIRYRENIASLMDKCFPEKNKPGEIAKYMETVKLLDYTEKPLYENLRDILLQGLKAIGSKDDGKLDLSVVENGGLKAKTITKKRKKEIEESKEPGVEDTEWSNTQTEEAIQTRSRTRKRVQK
The experiment in a line: Inhibition of VRK1 (unknown origin) using RBER-CHKtide as substrate after 60 mins by scintillation counting.

Assay [12] has as its target Serine/threonine-protein kinase PAK 1 (Homo sapiens) (UniProt Q13153). Nature of the assay: Inhibition of PAK1 (unknown origin) using tetra(LRRWSLG) as substrate after 60 mins by scintillation counting.
The target in assay [13] is Mitogen-activated protein kinase 10 (Homo sapiens) (UniProt P53779). The experiment in a line: Inhibition of JNK3 (unknown origin) using ATF2 as substrate after 60 mins by scintillation counting.
Assay [14] concerns the target Mitogen-activated protein kinase 8 (Homo sapiens) (UniProt P45983). The experiment in a line: Inhibition of JNK1 (unknown origin) using ATF2 as substrate after 60 mins by scintillation counting.
The target in assay [15] is Mitogen-activated protein kinase 1 (Homo sapiens) (UniProt P28482). The experiment in a line: Inhibition of ERK2 (unknown origin) using RBER-CHKtide as substrate after 60 mins by scintillation counting.

Sequence of Receptor tyrosine-protein kinase erbB-2 (P04626 whole entry, the tested form may be a part): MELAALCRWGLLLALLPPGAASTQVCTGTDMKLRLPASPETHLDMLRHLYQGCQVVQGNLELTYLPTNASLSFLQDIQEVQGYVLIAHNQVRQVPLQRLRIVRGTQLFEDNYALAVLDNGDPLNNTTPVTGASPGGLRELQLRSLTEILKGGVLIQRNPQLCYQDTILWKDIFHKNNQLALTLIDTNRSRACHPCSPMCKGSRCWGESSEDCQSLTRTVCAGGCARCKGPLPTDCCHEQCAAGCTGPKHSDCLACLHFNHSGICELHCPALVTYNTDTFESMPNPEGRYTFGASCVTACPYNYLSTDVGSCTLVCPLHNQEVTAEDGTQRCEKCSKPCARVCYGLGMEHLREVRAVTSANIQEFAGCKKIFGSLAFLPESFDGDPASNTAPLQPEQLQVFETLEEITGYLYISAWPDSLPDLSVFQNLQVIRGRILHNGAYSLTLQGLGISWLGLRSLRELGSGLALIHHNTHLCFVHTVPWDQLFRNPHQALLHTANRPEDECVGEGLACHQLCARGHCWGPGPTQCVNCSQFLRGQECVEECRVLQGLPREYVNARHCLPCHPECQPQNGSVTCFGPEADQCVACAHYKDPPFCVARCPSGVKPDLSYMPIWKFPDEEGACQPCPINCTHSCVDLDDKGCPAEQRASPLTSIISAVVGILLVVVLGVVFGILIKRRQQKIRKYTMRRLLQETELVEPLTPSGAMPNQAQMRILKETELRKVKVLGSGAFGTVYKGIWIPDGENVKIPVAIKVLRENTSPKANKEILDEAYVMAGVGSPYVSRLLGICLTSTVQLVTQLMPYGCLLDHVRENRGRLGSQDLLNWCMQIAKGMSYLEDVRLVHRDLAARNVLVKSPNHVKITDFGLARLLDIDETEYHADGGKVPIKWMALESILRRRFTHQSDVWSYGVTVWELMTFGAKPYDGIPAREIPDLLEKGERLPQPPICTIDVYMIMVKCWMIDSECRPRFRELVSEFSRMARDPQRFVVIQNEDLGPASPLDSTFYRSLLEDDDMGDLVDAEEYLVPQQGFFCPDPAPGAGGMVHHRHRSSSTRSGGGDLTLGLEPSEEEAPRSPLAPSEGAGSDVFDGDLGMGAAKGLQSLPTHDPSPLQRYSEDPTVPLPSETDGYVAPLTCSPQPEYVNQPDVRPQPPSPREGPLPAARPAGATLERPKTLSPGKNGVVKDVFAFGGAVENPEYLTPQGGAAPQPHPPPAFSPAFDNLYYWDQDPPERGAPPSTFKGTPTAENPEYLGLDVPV
Sequence of Epidermal growth factor receptor (P00533 whole entry): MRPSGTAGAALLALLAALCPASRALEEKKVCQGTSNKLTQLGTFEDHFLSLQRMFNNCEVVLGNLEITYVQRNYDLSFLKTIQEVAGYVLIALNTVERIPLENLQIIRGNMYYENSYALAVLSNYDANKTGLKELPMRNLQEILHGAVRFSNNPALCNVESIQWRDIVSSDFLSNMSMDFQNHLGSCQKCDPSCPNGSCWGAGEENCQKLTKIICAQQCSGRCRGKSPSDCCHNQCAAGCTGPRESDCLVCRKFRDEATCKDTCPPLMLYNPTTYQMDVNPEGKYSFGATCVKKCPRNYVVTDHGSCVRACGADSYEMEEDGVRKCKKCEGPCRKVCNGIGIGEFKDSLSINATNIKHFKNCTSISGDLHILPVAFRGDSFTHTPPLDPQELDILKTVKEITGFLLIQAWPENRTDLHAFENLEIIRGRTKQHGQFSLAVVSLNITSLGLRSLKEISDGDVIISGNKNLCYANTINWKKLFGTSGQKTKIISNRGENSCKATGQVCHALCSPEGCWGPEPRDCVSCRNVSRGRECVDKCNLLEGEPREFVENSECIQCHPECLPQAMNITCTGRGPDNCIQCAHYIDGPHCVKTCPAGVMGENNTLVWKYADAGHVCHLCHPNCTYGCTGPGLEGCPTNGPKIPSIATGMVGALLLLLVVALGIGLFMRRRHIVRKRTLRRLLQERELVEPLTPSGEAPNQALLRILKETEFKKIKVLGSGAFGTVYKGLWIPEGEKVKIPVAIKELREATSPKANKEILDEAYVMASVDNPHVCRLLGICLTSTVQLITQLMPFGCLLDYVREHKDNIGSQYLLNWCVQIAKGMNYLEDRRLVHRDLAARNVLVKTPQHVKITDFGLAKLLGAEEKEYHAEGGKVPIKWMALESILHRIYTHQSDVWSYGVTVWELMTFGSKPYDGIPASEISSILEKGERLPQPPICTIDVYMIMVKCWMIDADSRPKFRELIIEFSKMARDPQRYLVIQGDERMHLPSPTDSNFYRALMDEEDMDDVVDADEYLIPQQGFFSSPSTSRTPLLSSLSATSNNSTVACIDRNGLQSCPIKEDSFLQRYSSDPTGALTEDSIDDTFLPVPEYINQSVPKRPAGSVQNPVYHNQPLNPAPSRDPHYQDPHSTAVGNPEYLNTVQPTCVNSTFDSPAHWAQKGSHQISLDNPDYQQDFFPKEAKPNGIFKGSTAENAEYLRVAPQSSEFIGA
Sequence of Serine/threonine-protein kinase PAK 1 (Homo sapiens) (Q13153 whole entry): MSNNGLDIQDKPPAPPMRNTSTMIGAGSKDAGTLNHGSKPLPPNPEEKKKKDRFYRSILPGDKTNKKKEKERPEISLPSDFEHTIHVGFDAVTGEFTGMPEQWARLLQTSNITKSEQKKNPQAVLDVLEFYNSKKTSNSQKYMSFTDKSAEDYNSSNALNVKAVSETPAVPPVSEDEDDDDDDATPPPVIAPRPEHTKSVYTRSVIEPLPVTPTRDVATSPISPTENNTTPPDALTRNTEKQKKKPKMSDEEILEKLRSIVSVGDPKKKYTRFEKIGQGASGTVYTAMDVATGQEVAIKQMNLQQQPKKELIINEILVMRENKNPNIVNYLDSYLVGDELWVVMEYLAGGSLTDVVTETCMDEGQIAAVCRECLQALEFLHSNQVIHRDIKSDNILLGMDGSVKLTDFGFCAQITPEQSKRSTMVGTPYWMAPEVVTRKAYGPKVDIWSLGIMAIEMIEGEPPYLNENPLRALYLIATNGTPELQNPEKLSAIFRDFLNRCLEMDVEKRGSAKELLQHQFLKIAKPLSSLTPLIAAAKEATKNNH
Sequence of Mitogen-activated protein kinase 8 (Homo sapiens) (P45983 whole entry): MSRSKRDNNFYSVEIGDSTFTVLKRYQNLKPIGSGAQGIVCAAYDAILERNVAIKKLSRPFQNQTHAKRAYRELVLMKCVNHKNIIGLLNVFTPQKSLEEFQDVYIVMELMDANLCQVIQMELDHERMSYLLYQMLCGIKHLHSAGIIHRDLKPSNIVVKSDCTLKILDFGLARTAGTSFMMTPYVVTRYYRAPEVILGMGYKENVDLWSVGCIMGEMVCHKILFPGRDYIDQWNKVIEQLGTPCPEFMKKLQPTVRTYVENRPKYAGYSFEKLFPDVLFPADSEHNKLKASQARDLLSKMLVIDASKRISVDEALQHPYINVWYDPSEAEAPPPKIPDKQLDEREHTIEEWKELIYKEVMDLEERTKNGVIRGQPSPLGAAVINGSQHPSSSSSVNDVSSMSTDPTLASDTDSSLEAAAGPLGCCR
Sequence of Mitogen-activated protein kinase 10 (Homo sapiens) (P53779 whole entry): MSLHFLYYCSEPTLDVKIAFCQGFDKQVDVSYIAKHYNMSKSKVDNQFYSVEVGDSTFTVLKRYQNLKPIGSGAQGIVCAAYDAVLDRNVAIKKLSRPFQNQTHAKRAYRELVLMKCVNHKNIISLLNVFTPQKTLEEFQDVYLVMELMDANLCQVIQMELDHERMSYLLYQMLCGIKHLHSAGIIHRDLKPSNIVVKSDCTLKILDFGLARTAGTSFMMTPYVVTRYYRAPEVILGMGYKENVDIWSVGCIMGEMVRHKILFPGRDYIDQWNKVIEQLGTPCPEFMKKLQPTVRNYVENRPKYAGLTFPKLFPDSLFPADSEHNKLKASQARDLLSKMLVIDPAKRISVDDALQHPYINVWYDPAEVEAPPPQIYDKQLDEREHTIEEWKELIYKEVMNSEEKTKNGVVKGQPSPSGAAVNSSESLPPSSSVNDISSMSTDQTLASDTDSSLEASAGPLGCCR
Sequence of RAC-alpha serine/threonine-protein kinase (Homo sapiens) (P31749 whole entry): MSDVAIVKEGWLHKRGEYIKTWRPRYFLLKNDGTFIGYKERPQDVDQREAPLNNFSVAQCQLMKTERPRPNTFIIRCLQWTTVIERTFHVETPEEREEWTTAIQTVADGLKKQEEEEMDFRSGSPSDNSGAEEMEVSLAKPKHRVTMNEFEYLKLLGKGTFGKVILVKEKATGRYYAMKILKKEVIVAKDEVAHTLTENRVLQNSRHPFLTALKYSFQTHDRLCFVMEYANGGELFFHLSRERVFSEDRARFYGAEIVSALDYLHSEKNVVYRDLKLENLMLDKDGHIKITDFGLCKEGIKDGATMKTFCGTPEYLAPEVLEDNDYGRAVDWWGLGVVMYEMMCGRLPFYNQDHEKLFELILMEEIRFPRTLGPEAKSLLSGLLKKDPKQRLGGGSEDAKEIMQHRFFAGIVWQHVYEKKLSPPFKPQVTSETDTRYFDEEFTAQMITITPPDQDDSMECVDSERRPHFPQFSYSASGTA

In the case of `Clc1cccc(Nc2ccnc3[nH]c4ccccc4c23)c1`, the concentration for half-maximal inhibition (IC50) in assay [1] was 0.066 µM.
With `CC(=O)c1ccc2[nH]c3nccc(Nc4cccc([N+](=O)[O-])c4)c3c2c1`, the half-inhibitory concentration (IC50) in assay [1] was found to be 0.978 µM; in [2], 0.021 µM.
Consider `O=S(=O)(c1ccc2[nH]c3nccc(Nc4cccc(O)c4)c3c2c1)N1CCN(CCO)CC1`, for which the results for the concentration for half-maximal inhibition (IC50) in assay [1] and in assay [2] were 0.376 µM and above 1000 µM, respectively.
Turning to `CC(=O)c1ccc2[nH]c3nccc(Nc4cccc(O)c4)c3c2c1`, the IC50 in [1] was 0.013 µM; in [2] it was above 1000 µM.
With `COc1cccc(Nc2ccnc3[nH]c4ccc(S(=O)(=O)N5CCNCC5)cc4c23)c1`, the values for the half-maximal inhibitory concentration (IC50) in assay [1] and in assay [2] were 0.39 µM and 0.0048 µM, respectively.
On to `Oc1cccc(Nc2ccnc3[nH]c4ccccc4c23)c1`, for which the 50% growth inhibitory concentration (GI50) was 1 µM in assay [3] and 0.89 µM in assay [4]. Also, in assay [5], the inhibition result was “Active”. The IC50 in assay [6] came to 0.259 µM; in [7], 0.25 µM; in assay [8], 0.27 µM; in assay [1], 1.3 µM. The inhibition result in assay [9], in [10], in assay [11], in assay [12], in assay [13] and in [14] was “inactive” throughout. Also, the inhibition entry in assay [15] was “inactive”.
For `O=S(=O)(c1ccc2[nH]c3nccc(Nc4cccc(O)c4)c3c2c1)N1CCOCC1`, the IC50 is 0.298 µM in [1] and above 1000 µM in [2].
Turning to `O=S(=O)(c1ccc2[nH]c3nccc(Nc4cccc(OCc5ccccc5)c4)c3c2c1)N1CCOCC1`, the concentration for half-maximal inhibition (IC50) came to 28.3 µM in assay [1] and 0.055 µM in assay [2].
The corresponding values for `Cc1ccccc1Nc1ccnc2[nH]c3ccccc3c12` are 0.978 µM and above 1000 µM.
For the molecule `Clc1ccc(Nc2ccnc3[nH]c4ccccc4c23)cc1`, the half-inhibitory concentration (IC50) in assay [1] is 0.31 µM; in assay [2] it was above 1000 µM.
`CCOc1cccc(Nc2ccnc3[nH]c4ccc(S(=O)(=O)N5CCN(CCO)CC5)cc4c23)c1`: the half-inhibitory concentration (IC50) was 6.53 µM in assay [1] and 0.479 µM in assay [2].
As for `COc1cccc(Nc2ccnc3[nH]c4ccc(S(=O)(=O)N5CCN(CCO)CC5)cc4c23)c1`, the IC50 stood at 0.689 µM in [1] and 0.0092 µM in [2].
Turning to `Oc1cccc(Nc2ccnc3[nH]c4ccc(Br)cc4c23)c1`, the GI50 was 1.35 µM in [3] and 0.44 µM in [4].
In the case of `CCOc1cccc(Nc2ccnc3[nH]c4ccc(S(=O)(=O)N5CCOCC5)cc4c23)c1`, the IC50 in assay [1] came to 54.8 µM; in assay [2], 0.41 µM.
As to `COc1cccc(Nc2ccnc3[nH]c4ccc(S(=O)(=O)N5CCOCC5)cc4c23)c1`, the values for the concentration for half-maximal inhibition (IC50) in [1] and in [2] were 1.24 µM and 0.0057 µM, respectively.
The matching figures for `CC(=O)c1ccc2[nH]c3nccc(Nc4cccc(Cl)c4)c3c2c1`: 1.15 µM and 0.013 µM.
The corresponding values for `CCOc1cccc(Nc2ccnc3[nH]c4ccc(S(=O)(=O)N5CCNCC5)cc4c23)c1` are 0.576 µM and 0.026 µM.
Turning to `CC(=O)c1ccc2[nH]c3nccc(Nc4cccc(N)c4)c3c2c1`, the half-maximal inhibitory concentration (IC50) was found to be 1.64 µM in assay [1] and 0.0076 µM in [2].

For the origin of these results see ChEMBL document CHEMBL3132748, “Novel inhibitors of breast cancer relevant kinases Brk and HER2” (Medchemcomm, 2014).
